# Data published in patent US20100272699A1, “MC-1R, MC-2R, and/or µ OPIOID RECEPTORS STIMULATION” (BASF BEAUTY CARE SOLUTIONS FRANCE S.A.S., priority 2007, published 2010).
# What was measured:
# Type in all cases: cell-based, human
# [1] = test system: μ opioid R; experiment: RT-PCR of μ opioid R mRNA in keratinocytes put in contact with actives; conditions: for stimulation of mRNA synthesis of the 3 receptors (μ opioid R): positive controls in keratinocytes: TGF-β 1 ng/ml, TNF-α 100 ng/mL, IL-1α 50 pg/ml, quantitative RT-PCR (x2 or x.08 for the 3 inducers)
# Source text: (§1) In particular, the extracts are obtained by macerating plants (preferably roots, rhizomes, stems, bark, flowers, fruits, seeds, germs, or leaves) at 1-10% (p/p), usually 1-5% in a solvent or a mixture of solvents, usually a mixture of water and alcohol, glycol, or polyol (such as ethanol, glycerol, butylene glycol and other glycols, xylitol, etc.) 100/0 to 0/100, and preferably in water. The extracts obtained are then filtered or distilled in order to recover the soluble portion, which is then filtered, preferably at 0.45 μm. Biotechnological hydrolysates are obtained via the fermentation of plant extracts in the presence of microorganisms usually from the family of lactic bacteria, in particular bactobacillus plantarum, or paracasei, and bifidobacterium, in particular longum or Saccharomyces. These hydrolysates are then filtered, preferably to 0.45 μm, in order to obtain the active components.
# (§2) The characterized molecules are prepared via dissolution in a solvent, usually DMSO, ethanol, glycol, and in particular DMSO at a concentration of 0.1%.
# (§3) The active components are tested for keratinocytes after dissolution in the culturing environment: usually between 0.1% and 2% (v/v) for plants and biotechnological hydrolysates and in particular from 0.5% to 1% and usually between 0.001% and 0.01% for characterized molecules. The present results are obtained with 1% in the culturing environment for plant extracts and biotechnological hydrolysates, and with 0.01% for characterized molecules.
# (§4) Keratinocytes taken from plastic surgery on normal adults through enzymatic digestion have been amplified in a specific environment for keratinocytes and then seeded, for example at 50,000 per cm^2 in 24-well plates and cultivated in a single layer in a definite no-serum environment. Upon convergence, the cells are put in contact with diluted actives in the culturing environment, usually for 24 hours.
# (§5) In parallel, an untreated control (environment alone) and 3 positive controls (TGF-β at 1 ng/ml, IL-1α at 50 pg/ml and TNF-α at 100 ng/mL) are usually carried out, for example on the same cultivation plate. TGF-β at 1 ng/ml, TNF-α at 100 ng/mL, and IL-1α at 50 pg/ml were previously tested and stimulation of mRNA synthesis of the 3 receptors induced by these 3 cytokins at these concentrations was verified through an analysis of mRNA, for example by quantatitive RT-PCR (x2 or x.08 for the 3 inducers). […]
# (§6) The parameters of amplification have usually been the following: The technique of RT-PCR in real time is conducted with the “Quanti Tect SYBR Green RT-PCR” kit (Qiagen, France) on wells containing mRNA, in an OPTICON thermocycler, which carries out cycles of amplification. […] At the end of each cycle, fluorescence, which is proportional to the number of fragments amplified, is read. […]
# [2] = test system: MC-2R; experiment: RT-PCR of MC-2R mRNA in keratinocytes put in contact with actives; conditions: for stimulation of mRNA synthesis of the 3 receptors (MC-2R): positive controls in keratinocytes: TGF-β 1 ng/ml, TNF-α 100 ng/mL, IL-1α 50 pg/ml, quantitative RT-PCR (x2 or x.08 for the 3 inducers)
# Source text: as §1, §2, §3, §4, §5, §6
# [3] = test system: MC-1R; experiment: RT-PCR of MC-1R mRNA in keratinocytes put in contact with actives; conditions: for stimulation of mRNA synthesis of the 3 receptors (MC-1R): positive controls in keratinocytes: TGF-β 1 ng/ml, TNF-α 100 ng/mL, IL-1α 50 pg/ml, quantitative RT-PCR (x2 or x.08 for the 3 inducers)
# Source text: as §1, §2, §3, §4, §5, §6
# [4] = test system: POMC; experiment: RT-PCR of POMC mRNA in keratinocytes put in contact with actives; conditions: mRNA vs untreated control, relative to actin, 24 hours, 1% plant extracts and biotechnological hydrolysates, 0.01% characterized molecules
# Source text: as §1, with “components. […]” for “components.”
# as §6
# [5] = mRNA vs untreated control, relative to actin, keratinocytes, 24 hours, 1% plant extracts and biotechnological hydrolysates, 0.01% characterized molecules
Compound,stimulation of mRNA synthesis of the 3 receptors (μ opioid R) [1],stimulation of mRNA synthesis of the 3 receptors (MC-2R) [2],stimulation of mRNA synthesis of the 3 receptors (MC-1R) [3],"μ opioid R Control X: [1, 5]","MC-2R Control X: [2, 5]","MC-1R Control X: [3, 5]",POMC Control X: [4]
TGF-β,stimulation,stimulation,stimulation,–,–,–,–
TNF-α,stimulation,stimulation,stimulation,–,–,–,–
"CC1=CC(=O)C2=C(C)CC(OC(=O)Cc3ccccc3)C3C(C)C(=O)OC3C12 (stereo not shown) [phenylacetic acid 3,6,9-trimethyl-2,7-dioxo-2,3,3a,4,5,7,9a,9b-octahydro-azuleno[4,5-b]furan-4-yl]",–,–,–,1.0 Control X,20.0 Control X,20.0 Control X,1 Control X
IL-1α: cytokine used as positive control at 50 pg/ml,stimulation,stimulation,stimulation,–,–,–,–
